Patent US20070053994A1, “Anti-inflammatory treatment” (priority 2003, published 2007)

System: severe psoriasis (person)
Assay: Case report: treatment of severe psoriasis of hands, arms and feet
Format: in vivo, human
Conditions: effects did not last following long term treatment

**Q.** How did the “effect of earlier treatment on psoriasis (patient history)” value turn out when `C[C@]12CCC(=O)C=C1CC[C@@H]1[C@@H]2C(=O)C[C@@]2(C)[C@H]1CC[C@]2(O)C(=O)CO` [cortisone] was run?
**A.** The value was “some effects”.
